Data on 14 compounds can be found in ChEMBL document CHEMBL1201862, “PubChem BioAssay data set” (2004).

Active and inactive are the calls of the source.

Assay [1] can be described thus: Luminescence-based cell-based high throughput dose response assay to identify activators of the DAF-12 from the parasite S. stercoralis (ssDAF-12). Type of assay: functional.
Assay [2] has as its target T1, Oxysterols receptor LXR-beta (Homo sapiens, UniProt P55055).
T1 sequence (P55055 whole entry): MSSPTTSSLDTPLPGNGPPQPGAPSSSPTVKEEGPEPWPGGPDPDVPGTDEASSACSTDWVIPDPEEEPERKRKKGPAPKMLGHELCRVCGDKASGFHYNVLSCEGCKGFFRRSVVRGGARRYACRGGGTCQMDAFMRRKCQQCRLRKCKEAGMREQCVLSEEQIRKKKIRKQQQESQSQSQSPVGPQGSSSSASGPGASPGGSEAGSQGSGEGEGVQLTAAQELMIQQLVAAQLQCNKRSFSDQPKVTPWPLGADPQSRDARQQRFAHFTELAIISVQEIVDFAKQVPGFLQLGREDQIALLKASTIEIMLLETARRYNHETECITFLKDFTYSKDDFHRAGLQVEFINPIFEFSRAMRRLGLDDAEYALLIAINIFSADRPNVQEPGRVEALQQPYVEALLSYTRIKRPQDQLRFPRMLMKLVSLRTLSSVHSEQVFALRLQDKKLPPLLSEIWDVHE
Kind of assay: LXR agonists, Gal4 luciferase reporter, dose response, counter-screen for ssDAF-12 agonist project, cell-based, luminescence, HEK293, S. stercoralis campaign (AID 720737). It counts as functional. The note with it: read-out: IC50 (the source's name). On the technique in general: Reporter assays use an easily measured gene product as a stand-in for the process of interest.

Assay [3] can be described thus: P. falciparum late gametocyte killing, dose response, luminescence (AID 1117278).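 Note: gametocytes exposed to compound for 24 hours.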 Type of assay: functional, cell-based.
A short description of assay [4]: Jurkat T cell cytotoxicity, dose response, cytotoxicity control for P. falciparum gametocyte viability project, luminescence (AID 1117277).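 Note: potency reflects loss of cellular ATP meaning fewer viable cells.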 It counts as functional, cell-based.
Assay [5] deals with Mitogen-activated protein kinase 10 (Homo sapiens, UniProt P53779). Kind of assay: Dose response biochemical screening assay for inhibitors of c-Jun N-Terminal Kinase 3 (JNK3). [Related pubchem assays: 746 ].
For assay [6], the target named is T2, Aminopeptidase N (Plasmodium falciparum FcB1/Columbia, UniProt O96935).
T2 sequence (O96935 whole entry): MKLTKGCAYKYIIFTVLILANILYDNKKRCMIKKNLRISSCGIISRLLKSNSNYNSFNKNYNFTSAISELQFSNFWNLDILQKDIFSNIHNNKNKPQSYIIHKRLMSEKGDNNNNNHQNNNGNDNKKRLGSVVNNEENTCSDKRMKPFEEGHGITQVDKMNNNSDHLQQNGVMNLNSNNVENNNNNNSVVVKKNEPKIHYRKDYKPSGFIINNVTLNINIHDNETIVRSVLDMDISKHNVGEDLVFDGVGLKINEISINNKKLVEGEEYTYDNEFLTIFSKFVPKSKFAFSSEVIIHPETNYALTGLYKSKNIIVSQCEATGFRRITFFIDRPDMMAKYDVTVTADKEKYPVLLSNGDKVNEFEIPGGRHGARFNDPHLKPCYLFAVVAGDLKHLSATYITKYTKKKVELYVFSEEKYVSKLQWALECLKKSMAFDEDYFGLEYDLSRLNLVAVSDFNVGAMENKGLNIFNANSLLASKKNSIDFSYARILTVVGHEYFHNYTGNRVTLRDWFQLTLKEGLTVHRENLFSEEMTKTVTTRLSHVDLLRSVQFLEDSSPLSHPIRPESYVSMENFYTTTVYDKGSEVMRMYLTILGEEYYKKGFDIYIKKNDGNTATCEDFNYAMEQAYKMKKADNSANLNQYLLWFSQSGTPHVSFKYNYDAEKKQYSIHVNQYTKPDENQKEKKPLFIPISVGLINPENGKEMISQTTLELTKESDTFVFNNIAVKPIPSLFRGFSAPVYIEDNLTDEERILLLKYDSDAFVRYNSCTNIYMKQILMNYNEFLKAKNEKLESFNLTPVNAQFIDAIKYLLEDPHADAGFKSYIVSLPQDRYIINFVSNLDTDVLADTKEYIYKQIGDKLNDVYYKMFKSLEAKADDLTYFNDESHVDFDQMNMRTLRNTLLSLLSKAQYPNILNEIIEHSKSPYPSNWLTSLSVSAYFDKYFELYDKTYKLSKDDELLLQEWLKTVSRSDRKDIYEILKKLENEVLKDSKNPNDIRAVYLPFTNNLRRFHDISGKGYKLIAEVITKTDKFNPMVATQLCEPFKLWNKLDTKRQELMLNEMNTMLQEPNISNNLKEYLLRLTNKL
Kind of assay: P. falciparum M1AAP inhibitors, biochemical, fluorogenic H-Leu-NHMec substrate, 1536-well (AID 1445). Set-up: species or system Plasmodium falciparum 3D7, 3D7.

In assay [7] the target is Prothrombin (Homo sapiens, UniProt P00734). The assay can be described thus: Thrombin 1536 HTS Dose Response Confirmation. [Related pubchem assays: 1046 (Thrombin 1536 HTS; hits were confirmed in this assay)]. Type of assay: functional.
Assay [8] addresses T3, Luciferin 4-monooxygenase (Photinus pyralis, UniProt P08659). Kind of assay: Counter Screen for Luciferase-based Assay Positives. [Related pubchem assays: 620, 618, 411 ]. (A counterscreen serves to expose hits that act by an unwanted route or on another target.)
For assay [9], the system named is HT-1080. Kind of assay: cytotoxicity in HT1080 fibrosarcoma cells, cell-based, fluorescence readout (AID 620). It counts as functional. As to conditions: Homo sapiens.
Assay [10] is described as follows: Luminescence Cell-Based Dose Response HTS to Identify Inhibitors of 5'UTR Stem-Loop Driven Prion Protein mRNA Translation in H4 Neuroglioblastoma Cells. [Related pubchem assays: 1827 (Project Summary), 1813 (Primary HTS)]. It counts as functional.
The target of assay [11] is T4, Heat shock factor protein 1 (Mus musculus, UniProt P38532).
T4 sequence (P38532 whole entry): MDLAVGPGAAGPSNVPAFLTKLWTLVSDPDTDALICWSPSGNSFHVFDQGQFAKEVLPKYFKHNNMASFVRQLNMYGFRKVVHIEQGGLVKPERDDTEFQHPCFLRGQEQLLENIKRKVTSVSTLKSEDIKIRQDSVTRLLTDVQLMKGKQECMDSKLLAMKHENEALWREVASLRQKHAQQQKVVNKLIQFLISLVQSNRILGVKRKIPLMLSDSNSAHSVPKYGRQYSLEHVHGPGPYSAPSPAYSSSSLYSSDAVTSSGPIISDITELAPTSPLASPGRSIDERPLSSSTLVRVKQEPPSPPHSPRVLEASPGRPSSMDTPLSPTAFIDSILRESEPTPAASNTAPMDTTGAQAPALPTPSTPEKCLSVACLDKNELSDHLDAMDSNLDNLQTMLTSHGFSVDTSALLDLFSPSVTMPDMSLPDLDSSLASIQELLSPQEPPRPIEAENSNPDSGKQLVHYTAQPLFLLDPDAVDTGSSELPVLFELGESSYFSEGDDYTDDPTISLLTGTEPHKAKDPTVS
The assay can be described thus: inhibition of MG132-induced HSE-luciferase signal, confirmation, cell-based, NIH3T3, luminescence, dose retest (AID 2382).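 Note: NIH3T3 fibroblasts with HSF1-driven luciferase reporter stressed by proteasome inhibitor MG132; luminescence from HSF1-driven luciferase expression after 8 hours of MG132 stress.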 Type of assay: functional.

A short description of assay [12]: inhibitors of SNCA 5'UTR-driven reporter translation, confirmation, H4 neuroglioma cells, luminescence (AID 1988). Type of assay: functional, cell-based.
In assay [13] the target is T3, Luciferin 4-monooxygenase. The assay can be described thus: firefly luciferase enzyme inhibitors, dose response, biochemical, luminescence (AID 1891).
Assay [14] can be described thus: Luminescence Cell-Based Dose Confirmation HTS to Identify Inhibitors of Platelet Dense Granule Release. [Related pubchem assays: 1663 (Primary HTS), 1678 (Summary of Project)]. It counts as functional.
The target of assay [15] is Paired box protein Pax-8 (Homo sapiens, UniProt Q06710). The assay can be described thus: inhibitors of PAX8-driven TPO luciferase reporter, dose response, RMG-I cells, cherry-pick (AID 687027).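 Note: luciferase reporter driven by Pax8 target thyroperoxidase promoter measured by SteadyGlo luminescence.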 It counts as functional, cell-based.
A short description of assay [16]: A2780 ovarian cancer cell cytotoxicity, dose response, cytotoxicity control, plate reader, dry powder samples (AID 743046). It counts as functional, cell-based.
The nature of assay [17]: NIH:OVCAR-3 ovarian cancer cell cytotoxicity, dose response, PAX8 inhibitor project, plate reader, dry powder samples (AID 743044). Type of assay: functional, cell-based.
The nature of assay [18]: IGROV1 ovarian cancer cell cytotoxicity, dose response, PAX8 inhibitor project, plate reader, dry powder samples (AID 743043). It counts as functional, cell-based. The note with it: IGROV-1.
Assay [19] is described as follows: cytotoxicity in OVCAR8 ovarian cancer cells, dose response, PAX8 project, cell-based, plate reader, dry powder samples (AID 743197). It counts as functional. As to conditions: OVCAR-8.
Assay [20] in a line: P. falciparum 3D7-ScDHODH growth inhibitors, dose response, SYBR Green, dry powder samples (AID 1159570).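 Note: parasite growth measured after 72 hours of compound exposure.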 Type of assay: functional, cell-based.
Assay [21] in a line: HepG2 cell cytotoxicity, dose response, cytotoxicity control, plate reader, dry powder samples (AID 1159569).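 Note: inhibitor potency with signal falling toward the positive control level.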 It counts as functional, cell-based.
Assay [22] in a line: P. falciparum Dd2 growth inhibitors, dose response, SYBR Green, cherry-picked samples (AID 1159567). Type of assay: functional, cell-based.
The nature of assay [23]: P. falciparum Dd2 growth inhibitors, dose response, SYBR Green, dry powder samples (AID 1159566).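 Note: potency for growth inhibition with lower SYBR green DNA signal.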 It counts as functional, cell-based.
A short description of assay [24]: P. falciparum ATP4 D1247Y mutant growth inhibitors, dose response, NITD609-resistant line, SYBR Green, dry powder (AID 1159571).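 Note: parasites synchronized at ring stage by sorbitol before testing.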 It counts as functional, cell-based.
The target of assay [25] is T5, Estrogen receptor (Homo sapiens, UniProt P03372).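 Note: potency for inhibiting coactivator peptide recruitment to the receptor.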
T5 sequence (P03372 whole entry): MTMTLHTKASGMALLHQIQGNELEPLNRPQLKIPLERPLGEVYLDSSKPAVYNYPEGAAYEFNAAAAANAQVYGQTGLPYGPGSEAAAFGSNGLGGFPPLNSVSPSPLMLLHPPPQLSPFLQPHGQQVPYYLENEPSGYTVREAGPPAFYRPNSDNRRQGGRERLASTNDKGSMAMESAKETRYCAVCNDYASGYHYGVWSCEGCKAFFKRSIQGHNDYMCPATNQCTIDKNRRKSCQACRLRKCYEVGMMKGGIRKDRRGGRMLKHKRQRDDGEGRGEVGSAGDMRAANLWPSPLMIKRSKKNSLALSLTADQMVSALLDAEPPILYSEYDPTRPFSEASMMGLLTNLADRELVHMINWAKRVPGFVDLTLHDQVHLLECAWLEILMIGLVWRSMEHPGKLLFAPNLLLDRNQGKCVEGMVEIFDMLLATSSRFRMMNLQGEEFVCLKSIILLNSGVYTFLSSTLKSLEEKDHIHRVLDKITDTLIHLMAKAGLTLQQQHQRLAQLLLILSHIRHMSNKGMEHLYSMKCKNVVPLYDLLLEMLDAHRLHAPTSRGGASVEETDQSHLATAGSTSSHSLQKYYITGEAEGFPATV

T3 sequence (P08659 whole entry): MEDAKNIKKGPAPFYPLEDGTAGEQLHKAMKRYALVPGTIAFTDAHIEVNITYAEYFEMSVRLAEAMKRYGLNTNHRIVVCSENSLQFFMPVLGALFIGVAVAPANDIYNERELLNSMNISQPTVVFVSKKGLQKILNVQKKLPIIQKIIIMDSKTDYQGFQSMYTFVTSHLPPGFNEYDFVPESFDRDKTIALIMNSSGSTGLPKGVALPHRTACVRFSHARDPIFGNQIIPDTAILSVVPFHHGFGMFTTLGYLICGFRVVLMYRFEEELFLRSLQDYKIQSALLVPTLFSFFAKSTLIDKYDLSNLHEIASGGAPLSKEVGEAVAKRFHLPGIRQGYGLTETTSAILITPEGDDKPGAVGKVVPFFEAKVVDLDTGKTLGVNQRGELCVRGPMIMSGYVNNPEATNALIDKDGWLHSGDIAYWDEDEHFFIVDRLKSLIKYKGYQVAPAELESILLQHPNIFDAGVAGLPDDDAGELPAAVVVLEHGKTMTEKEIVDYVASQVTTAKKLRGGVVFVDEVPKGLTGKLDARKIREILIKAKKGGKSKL
Chain of Mitogen-activated protein kinase 10 (P53779 whole entry): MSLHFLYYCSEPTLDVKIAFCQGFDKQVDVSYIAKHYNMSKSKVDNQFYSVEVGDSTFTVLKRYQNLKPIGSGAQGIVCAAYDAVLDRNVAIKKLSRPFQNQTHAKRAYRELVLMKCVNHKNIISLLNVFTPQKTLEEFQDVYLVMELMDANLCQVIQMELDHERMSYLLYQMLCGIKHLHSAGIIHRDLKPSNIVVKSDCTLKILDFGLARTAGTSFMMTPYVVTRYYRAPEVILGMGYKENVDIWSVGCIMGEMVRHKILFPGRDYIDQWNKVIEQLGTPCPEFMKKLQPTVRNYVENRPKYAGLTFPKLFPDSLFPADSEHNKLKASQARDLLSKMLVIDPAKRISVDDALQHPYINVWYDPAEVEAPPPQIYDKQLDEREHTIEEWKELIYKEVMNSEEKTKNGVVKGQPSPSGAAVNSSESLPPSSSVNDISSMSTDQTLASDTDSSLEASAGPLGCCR
Chain of Paired box protein Pax-8 (Q06710 whole entry): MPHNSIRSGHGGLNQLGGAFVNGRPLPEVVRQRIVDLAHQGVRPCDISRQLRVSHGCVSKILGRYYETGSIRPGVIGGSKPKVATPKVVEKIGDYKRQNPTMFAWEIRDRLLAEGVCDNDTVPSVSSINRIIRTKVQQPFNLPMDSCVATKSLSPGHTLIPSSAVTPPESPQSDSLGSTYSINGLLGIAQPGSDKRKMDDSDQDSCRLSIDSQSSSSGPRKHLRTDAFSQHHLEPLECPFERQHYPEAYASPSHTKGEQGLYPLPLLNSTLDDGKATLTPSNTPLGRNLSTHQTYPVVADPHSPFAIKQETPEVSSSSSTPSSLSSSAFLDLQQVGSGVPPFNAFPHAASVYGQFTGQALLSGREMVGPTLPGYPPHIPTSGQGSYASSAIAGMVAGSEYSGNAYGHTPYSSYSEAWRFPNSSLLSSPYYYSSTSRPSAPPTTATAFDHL

Consider `COC(=O)c1ccccc1NC(=O)NCc1ccncc1`, for which, in [1], the IC50 was > 67.5 µM (inactive). For the same compound, the EC50 in assay [2] is > 67.5 µM (inactive).
As to `O=C1c2ccccc2C(O)N1Cc1cccs1` (stereo not given), the IC50 was > 109 µM (inactive) in [3] and > 83.3 µM (inactive) in assay [4].
Take `COc1ccc2nc(NC(=O)Cc3ccc(OC)c(S(=O)(=O)N4CCOCC4)c3)sc2c1`: in [5], the IC50 is on record as 28.1 µM (not active).
On to `CC(NC(=O)CN(C)S(=O)(=O)c1c[nH]cn1)c1ccccc1` (stereo not given), for which the IC50 in [6] is 54.6 µM (active).
As to `Cc1ccc(NC(=O)c2ccc3ccccc3n2)cc1S(=O)(=O)N1CCOCC1`, the IC50 in [7] was 40.9 µM (active).
As to `c1ccc(-c2n[nH]c3c2CCC3)cc1`, the IC50 in assay [5] was 50.9 µM (not active).
Regarding `Cc1cccc(-n2ncc3c(N4CCCC4)ncnc32)c1`, the results for the EC50 in assay [8] and in assay [9] were 1.02 µM (active) and > 50 µM (not active), respectively.
`COc1ccc(/N=C/C2=C(O)c3ccccc3C2=O)c(OC)c1`: the EC50 in [8] was 50.2 µM (active); in assay [10], 11.7 µM (active); in assay [11] it was 2.42 µM (active); in assay [12], 8.03 µM (active); in assay [13] it was 1.21 µM (active); in [14], 3.47 µM (active). Besides, the EC50 in [9] is recorded as > 50 µM (not active).
Turning to `COC(=O)CN1C(=O)C(O)(CC(=O)c2ccc(Cl)cc2)c2ccccc21` (stereo not given), the IC50 in assay [7] is given as > 50 µM (not active).
On to `O=C(CNC(=O)c1ccncc1)N/N=C/c1cc(Br)ccc1O`, for which, in [6], the IC50 is 24.5 µM (active).
With `Cc1ccc(NCc2nc3ccccc3n2C)cc1`, in assay [1], the IC50 was > 67.5 µM (inactive). For the same compound, the EC50 in assay [2] is > 67.5 µM (inactive).
For the compound `CCc1ccc(CN(C)Cc2nc(COc3ccccc3)no2)nc1`, the IC50 in [3] was > 109 µM (inactive); in assay [4], > 83.3 µM (inactive).
In the case of `COc1ccc2c3c(n(C)c2c1)[C@H](CO)N(C(=O)Nc1ccc(F)cc1)CC31CCN(C(=O)c2ccc3c(c2)OCO3)CC1`, the AC50 in assay [15] was 6.51 µM (active); in [16], 22.5 µM (active); in assay [17], 28.6 µM (active); in assay [18], 57.7 µM (active); in assay [19] it was 4.33 µM (active); in assay [20] it was 1.2 µM (active). In addition, the AC50 in assay [21] was > 100 µM (inactive); in [22], 1.79 µM (active); in assay [23], 0.892 µM (active); in assay [24], 0.75 µM (active).
With `Cc1nc2cccc(C(=O)NCc3ccccc3)c2o1`, the IC50 in assay [25] is recorded as 48.4 µM (not active); in assay [5] it was 45.5 µM (not active).

As usually defined, the IC50 is the concentration needed to halve the response being measured. As a reminder, the AC50 is the concentration giving half of the maximal activity seen.
